The test system of data set [1] is MDRSA 01ST001. Put plainly: Agar disk diffusion analysis, zone of inhibition (ZOI). Type of data set: cell-based, Staphylococcus aureus. The protocol: For synergy effect screening, a 0.1 mL aliquot of MRSA or MSSA strain (5×10^5 CFU/mL) cultured in a log-phase on TSA plates was inoculated. […] A disk including DMSO alone or 7,10-EODA alone (¼×MIC) was used as a control group. The plates were cultured under conditions of […] and 24 hours, and a synergistic effect was observed when the disk periphery including both antibiotic and 7,10-EODA was at least 5 mm in zone of inhibition (ZOI).
Specifically, in order to compare the antimicrobial activity of the 7,10-EODA or the antibiotic of the present invention against the MDRSA 01ST001 strain, the MDRSA 01ST001 strain was treated with the 7,10-EODA (E 100 μg) of the present invention, streptomycin (S, 100 μg), ampicillin (A, 100 μg), oxacillin (O, 100 μg), vancomycin (V, 100 μg), or penicillin (P, 100 μg), according to the method described in Experimental Example 5.
Specifically, the minimal inhibitory concentration (MIC) was measured according to the method of Experimental Example 4 above, and the degree of inhibition (Agar diffusion analysis) (zone of inhibition; ZOI) was measured according to the method of Experimental Example 5 above.
(A growth-free zone around the sample is the usual read-out of agar diffusion tests.)

Another data set has as its system E. coli ATCC 8739. Put plainly: Checker board synergy evaluation (MIC, FICI). Type of data set: cell-based. The conditions noted are these: Escherichia coli, ATCC8739, 24 h; strain 8739; single agent. The protocol:
(§1) Interactions of the selected antibiotic or 7,10-EODA of the present invention were evaluated using the checker board method (Nair et al. 2015). […] To obtain various concentrations of 7,10-EODA and antibiotic combination, a 2-fold dilution of the beta-lactam antibiotic was placed on the same plate. About 10^5 CFU/mL of microorganisms to be tested was added to the wells of each plate, and cultured for 24 hours at 37° C. without shaking. At the end of the culture period, cell growth was measured at OD600 using a spectrophotometer. Each 7,10-EODA and antibiotic combination was repeated at least three times. MIC was identified at the lowest concentration of antibiotics with growth inhibition of 90% or higher. FICAB means fractional inhibitory concentration (FIC) of drug A in the presence of drug B, and FICBA means fractional inhibitory concentration (FIC) of drug B in the presence of drug A. The fractional inhibitory concentration index (FICI) represents the sum of the FIC values of the interacting antibiotics. Interactions are based on FICI values, with FICIs less than 0.5 being categorized as synergy, FICIs 0.5 to 4 being indifferent, and FICIs greater than 4 being antagonistic. The degree of synergy was also measured based on the conventional Bliss independence model of synergy (Morones-Ramirez et al. 2013). Specifically, the degree of synergy was calculated by the following equation: S indicates degree of synergy, fAB indicates bacterial growth (optical density) when 7,10-EODA and antibiotics are used in combination, fA0 and f0B represent bacterial growth for antibiotic alone or 7,10-EODA single treatment, respectively. f00 represents bacterial growth in the absence of drug. The degree of synergy is divided into three categories based on the S value, where 0 means neutral, greater than 0 means synergism, and less than 0 means antagonism. S=(fA0/f00)(f0B/f00)−(fAB/f00)
(§2) The antimicrobial activity synergistic effects according to the combination treatment of 7,10-EODA and each antibiotic on methicillin-resistant Staphylococcus aureus (MRSA) strains 085, 093, 120, 136, and 165, MDRSA 01ST001, which is a multidrug-resistant Staphylococcus aureus (MDRSA) strain, E. coli ATCC 8739, and S. typhimurium KCTC 2515 were confirmed. […] Fractional inhibitory concentration indices (FICI) values accordingly were confirmed.

Data set [2] deals with MDRSA 01ST001. The data set is described as follows: Checker board synergy evaluation (MIC, FICI). The conditions noted are these: Staphylococcus aureus, 24 h; strain 001; single agent. In kind it is cell-based. As to the method: as §1, §2
A further data set relates to MRSA strain 085. The data set is described as follows: Checker board synergy evaluation (MIC, FICI). Type of data set: cell-based. The note with it: Staphylococcus aureus, 24 h. As to the method:
as §1, §2

The subject of another data set is MRSA strain 093. Put plainly: Checker board synergy evaluation (MIC, FICI). Type of data set: cell-based. The conditions noted are these: Staphylococcus aureus, 24 h. As to the method:
as §1, §2

The test system of a further data set is MRSA strain 120. The data set is described as follows: Checker board synergy evaluation (MIC, FICI). Type of data set: cell-based. The note with it: Staphylococcus aureus, 24 h. The protocol:
as §1, §2

A further data set deals with MRSA strain 136. Put plainly: Checker board synergy evaluation (MIC, FICI). Type of data set: cell-based. The note with it: Staphylococcus aureus, 24 h. As to the method: as §1, §2
Another data set has as its system MRSA strain 165. The data set is described as follows: Checker board synergy evaluation (MIC, FICI). Type of data set: cell-based. The note with it: Staphylococcus aureus, 24 h. As to the method: as §1, §2
In the next data set the test system is S. typhimurium KCTC 2515. The data set is described as follows: Checker board synergy evaluation (MIC, FICI). In kind it is cell-based, Salmonella typhimurium. The conditions noted are these: Salmonella enterica, 24 h; strain 2515; single agent. As to the method: as §1, with “S=(fA0/f00)(f0B/f00)−(fAB/f00) […]” for “S=(fA0/f00)(f0B/f00)−(fAB/f00)”
For data set [3], the system named is MRSA 01ST001 (MDRSA 01ST001). The data set is described as follows: Antimicrobial activity on solid medium (clear zone around filter paper). In kind it is cell-based, Staphylococcus aureus. As to the method: (§3) First, 1.5% of potato agar was added to the YDP medium, sterilized, and then an agar plate hardened by pouring about 20 ml in a plastic Petri dish was used. MRSA 01ST001 was diluted to about 107/ml, and then about 500 μl was dispersed evenly on the agar plate.
(§4) The size of the clear zone around the filter paper shown after the culture at 37° C. for 2 to 3 days after the inoculation was measured to confirm the degree of antimicrobial activity. At this time, vancomycin 100 μg, oxacillin 100 μg, ampicillin 100 μg, streptomycin 100 μg, and penicillin 100 μg were used as control groups.
(§5) The antimicrobial activity can be confirmed with the degree showing the clear zone on the agar plate. It is judged that the larger the clear zone, the higher the antimicrobial activity. The results are illustrated in FIG. 1 and FIG. 2.
(§6) The results are illustrated in FIG. 3. The experiment was carried out in the same manner as in Example 1-2.

For data set [4], the system named is Staphylococcus aureus ATCC 29213. The description is as above. In kind it is cell-based. The note with it: FIG. 3. As to the method:
as §3, §4, §5, §6

For data set [5], the system named is MDRSA 01ST001. Put plainly: microbe, parasite or virus in culture. The note with it: Staphylococcus aureus, 12 h. Type of data set: cell-based. An excerpt:
The results are illustrated in FIG. 11.

In a further data set the test system is HepG2 animal cells. The protocol: Simple toxicity tests were performed for the four components of 7,10-EODA, DOD, oleic acid, and DMSO. The target cells were HepG2 animal cells and the results were obtained by MTT assay.
Data set [6] concerns MDRSA 01ST001. The note with it: 125 μg/ml.
Data set [7] has as its system MDRSA 01ST001. Put plainly: microbe, parasite or virus in culture. The conditions noted are these: Staphylococcus aureus.

Like-named read-outs stand apart in the source and are kept apart here. Bounds are passed on as bounds.

By MIC is commonly meant the smallest concentration in the dilution series that meets the test's criterion for growth inhibition. As to `CCCCCCCCc1ccc(CCCCCC(=O)O)o1` [7,10-EODA, 7,10-epoxyoctadeca-7,9-dienoic acid], the “antimicrobial activity, disk diffusion” value with MDRSA 01ST001 [1] (100 μg each, FIG. 4) was “showed the antimicrobial activity”. In addition, the “antimicrobial activity according to concentration” value in the data set with MDRSA 01ST001 [1] (50, 100, 200 and 400 μg, FIG. 5) is listed as “high in a concentration-dependent manner”. The MIC in the data set with E. coli ATCC 8739 turned out to be 500 µg/mL; with MDRSA 01ST001 [2] it was 125 µg/mL; with MRSA strain 085 it was 125 µg/mL; in the data set on MRSA strain 093, 125 µg/mL; with MRSA strain 120 it was 125 µg/mL; in the data set with MRSA strain 136, 125 µg/mL. The MIC worked out at 125 µg/mL with MRSA strain 165 and 500 µg/mL in the data set with S. typhimurium KCTC 2515. For the same compound, the “clear zone on agar plate” value in [3] (100 μg per filter paper, 37° C., 2 to 3 days, FIG. 1) was “clear zone similar in size to vancoclin”. Further, the “clear zone size with treatment concentration” value in data set [3] (50, 100, 200 and 400 μg, FIG. 2) was “improved in a concentration-dependent manner”. For the same compound, the “antimicrobial activity on solid medium” value was “higher antimicrobial activity than Staphylococcus aureus ATCC 29213” in [3] (MDRSA 01ST001, FIG. 3) and “antimicrobial activity was exhibited” in data set [4]. Also, in the data set with MDRSA 01ST001 [5] (read-out: MIC90 concentration), the MIC90 is no more than 15.6 µg/mL. The inhibition at 15.6 µg/mL was greater than 90% with MDRSA 01ST001 [5] (read-out: reduction of residual viable microorganisms compared to the control) and no less than 50% in the data set on MDRSA 01ST001 [7] (4 h, read-out: decrease of residual viable microorganism concentration compared to the control). The “toxicity as a whole” value with HepG2 animal cells is given as “not highly toxic”. In the data set on MDRSA 01ST001 [6], the “time until MDRSA 01ST001 was completely killed” value was no more than 10 min. Moreover, the viability at 62.5 µg/mL in the data set on MDRSA 01ST001 [7] (10 min, read-out: residual viable microorganism concentration compared to the control) is less than 10%.

The values above are taken from US10695314B2, “Antimicrobial composition containing 7,10-epoxyoctadeca-7,9-dienoic acid as active ingredient” (priority 2016, dated 2020).
